Measured values from US11608323B2 (SYNGENTA LIMITED, priority 2013, dated 2023).

Legend:
Type in all cases: in vivo
[1] = tested on: ALOMY; assay: Pre-emergence herbicidal activity, glasshouse pot test; details: rate 1000 g/Ha, evaluated after 13 days, scale 0-5
Method in brief: (§1)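 Sow in pots of standard soil; after one day under glasshouse conditions, spray compound (acetone/water 50:50 formulation, 0.5% Tween 20, diluted in water). Grow on at 24/16 °C, 14 h light, 65% humidity with twice-daily watering. Assess at 13 days, 0–5 damage scale.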

[2] = tested on: AMARE; assay: as above; details: rate 1000 g/Ha, evaluated after 13 days, scale 0-5
Method in brief: as §1

[3] = tested on: ECHCG; assay: as above; details: rate 1000 g/Ha, evaluated after 13 days, scale 0-5
Method in brief: as §1

[4] = tested on: SETFA; assay: as above; details: rate 1000 g/Ha, evaluated after 13 days, scale 0-5
Method in brief: as §1

[5] = tested on: ABUTH; assay: Post-emergence herbicidal activity, glasshouse pot test; details: Abutilon theophrasti; application post-emergence; rate 1000 g/Ha; evaluated after 13 days
Method in brief: (§2)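 Visual herbicidal injury (0 = no damage, 5 = plant killed) recorded 13 days post-treatment. Treatment consisted of a single spray onto emerged seedlings at day 8; conditions before and after were 24/16 °C, 14 h light, 65% humidity.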

[6] = tested on: ALOMY; assay: as above; details: Alopecurus myosuroides; application post-emergence; rate 1000 g/Ha; evaluated after 13 days
Method in brief: as §2

[7] = tested on: AMARE; assay: as above; details: Amaranthus retroflexus; application post-emergence; rate 1000 g/Ha; evaluated after 13 days
Method in brief: as §2

[8] = tested on: ECHCG; assay: as above; details: Echinochloa crus-galli; application post-emergence; rate 1000 g/Ha; evaluated after 13 days
Method in brief: as §2

[9] = tested on: SETFA; assay: as above; details: Setaria faberi; application post-emergence; rate 1000 g/Ha; evaluated after 13 days
Method in brief: as §2

[10] = tested on: ZEAMX; assay: as above; details: Zea mays; application post-emergence; rate 1000 g/Ha; evaluated after 13 days
Method in brief: as §2

[11] = tested on: ABUTH; assay: Pre-emergence herbicidal activity, glasshouse pot test; details: rate 1000 g/Ha, evaluated after 13 days, scale 0-5
Method in brief: as §1

[12] = tested on: ZEAMX; assay: as above; details: rate 1000 g/Ha, evaluated after 13 days, scale 0-5
Method in brief: as §1

Compound | ALOMY damage score, application pre-emergence [1] | AMARE damage score, application pre-emergence [2] | ECHCG damage score, application pre-emergence [3] | SETFA damage score, application pre-emergence [4] | Post-emergence herbicidal activity ABUTH (damage score 0-5) [5] | Post-emergence herbicidal activity ALOMY (damage score 0-5) [6] | Post-emergence herbicidal activity AMARE (damage score 0-5) [7] | Post-emergence herbicidal activity ECHCG (damage score 0-5) [8] | Post-emergence herbicidal activity SETFA (damage score 0-5) [9] | Post-emergence herbicidal activity ZEAMX (damage score 0-5) [10] | ABUTH damage score, application pre-emergence [11] | ZEAMX damage score, application pre-emergence [12]
CCOC1C(O)N(c2cc(C(F)(F)F)c(-c3cncnc3)cn2)C(=O)N1C (stereo not drawn) [Compound A14] | 4 | 5 | 5 | 5 | 5 | 4 | 5 | 5 | 5 | 3 |  | 
COC1C(O)N(c2cc(C(F)(F)F)c(-c3cncnc3)cn2)C(=O)N1C (stereo not drawn) [Compound A15] | 3 | 5 | 3 | 4 | 5 | 4 | 5 | 4 | 4 | 0 |  | 
CCOC1C(O)N(c2cc(C(F)(F)F)c(I)cn2)C(=O)N1C (stereo not drawn) [Compound A16] | 4 | 5 | 5 | 4 | 5 | 5 | 5 | 5 | 5 | 2 |  | 
CN1C(=O)N(c2cc(C(F)(F)F)c(I)cn2)C(O)C1O (stereo not drawn) [Compound A17] | 3 | 5 | 4 | 3 | 5 | 5 | 5 | 5 | 5 | 4 |  | 
COC1C(O)N(c2cc(C(F)(F)F)c(I)cn2)C(=O)N1C (stereo not drawn) [Compound A18] | 4 | 5 | 5 | 4 | 5 | 5 | 5 | 5 | 5 | 3 |  | 
CC1NC(=O)N(c2cc(C(F)(F)Cl)ccn2)C1O (stereo not drawn) [Compound A91] |  | 5 | 4 | 4 | 5 |  | 5 | 5 | 4 | 3 | 5 | 2
CC1C(O)N(c2cc(Cl)ccn2)C(=O)N1C (stereo not drawn) [Compound A92] |  | 5 | 5 | 4 | 5 |  | 5 | 5 | 5 | 4 | 5 | 3
CCN1CC(O)N(c2cc(C(F)(F)F)ccn2)C1=O (stereo not drawn) [Compound A95] |  | 5 | 5 | 5 | 5 |  | 5 | 5 | 5 | 2 | 5 | 1
CCO[C@@H]1[C@@H](OC(=O)[C@](OC)(c2ccccc2)C(F)(F)F)N(c2cc(C(F)(F)F)ccn2)C(=O)N1C [Compound A102] |  | 5 | 4 | 3 | 5 |  | 5 | 2 | 1 | 1 | 5 | 1
CCO[C@H]1[C@H](OC(=O)[C@](OC)(c2ccccc2)C(F)(F)F)N(c2cc(C(F)(F)F)ccn2)C(=O)N1C [Compound A103] |  | 2 | 1 | 4 | 0 |  | 2 | 0 | 1 | 1 | 1 | 1
CON1C(=O)N(c2cc(C(F)(F)F)ccn2)C(NCc2ccccc2)[C@@H]1C (stereo partly drawn) [Compound A104] |  | 5 | 5 | 5 | 5 |  | 5 | 5 | 5 | 5 | 4 | 3
COCc1cnc(N2C(=O)N(C)C(C)C2O)cc1C(F)(F)F (stereo not drawn) [Compound A105] |  | 5 | 5 | 5 | 5 |  | 5 | 5 | 5 | 5 | 5 | 4
CC1C(O)N(c2cc(C(F)(F)F)ccn2)C(=O)N1C(F)F (stereo not drawn) [Compound A106] |  | 5 | 4 | 3 | 5 |  | 5 | 4 | 4 | 1 | 5 | 2
C=CCN1C(=O)N(c2cc(C(F)(F)F)ccn2)C(O)C1C (stereo not drawn) [Compound A107] |  | 5 | 5 | 4 | 5 |  | 5 | 5 | 5 | 3 | 5 | 2
COCCOCc1cnc(N2C(=O)N(C)C(C)C2O)cc1C(F)(F)F (stereo not drawn) [Compound A108] |  | 5 | 5 | 4 | 5 |  | 5 | 5 | 5 | 5 | 5 | 2
